From the NIST ThermoML archive (doi:10.1021/je700499d)
Numbers after ± are expanded uncertainties.

Key:
[1] = xn = mol fraction of the nth substance listed; conditions: 101 kPa, Liquid
[2] = 101 kPa, Liquid

OCCO [1,2-ethanediol] + OCCCCO
[1], x2 = 0
Conditions | mass density [kg/m3]
293.15 K | 1113.55 ± 0.61
303.15 K | 1106.82 ± 0.65
313.15 K | 1099.8 ± 0.69
323.15 K | 1092.59 ± 0.73

OCCCO [propan-1,3-diol] + OCCCCO
mass density [kg/m3], [1]
Conditions | 293.15 K | 298.15 K | 303.15 K | 308.15 K | 313.15 K | 318.15 K | 323.15 K | 328.15 K
x2 = 0 | 1053.66 ± 0.59 | 1050.29 ± 0.61 | 1047.09 ± 0.63 | 1043.92 ± 0.65 | 1040.61 ± 0.67 | 1037.6 ± 0.69 | 1034.51 ± 0.71 | 1031 ± 0.73
x2 = 0.0858 | 1049.89 ± 0.57 | 1046.56 ± 0.59 | 1043.39 ± 0.61 | 1040.26 ± 0.63 | 1036.99 ± 0.65 | 1034.04 ± 0.68 | 1030.99 ± 0.7 | 1027.53 ± 0.72
x2 = 0.1743 | 1046.21 ± 0.56 | 1042.87 ± 0.58 | 1039.74 ± 0.6 | 1036.61 ± 0.62 | 1033.39 ± 0.64 | 1030.48 ± 0.66 | 1027.5 ± 0.68 | 1024.08 ± 0.71
x2 = 0.2657 | 1042.49 ± 0.55 | 1039.2 ± 0.57 | 1036.07 ± 0.59 | 1032.95 ± 0.61 | 1029.75 ± 0.63 | 1026.88 ± 0.65 | 1023.9 ± 0.67 | 1020.5 ± 0.69
x2 = 0.3602 | 1038.78 ± 0.54 | 1035.48 ± 0.56 | 1032.39 ± 0.58 | 1029.26 ± 0.6 | 1026.07 ± 0.62 | 1023.21 ± 0.64 | 1020.26 ± 0.66 | 1016.86 ± 0.68
x2 = 0.4578 | 1035.05 ± 0.53 | 1031.77 ± 0.55 | 1028.69 ± 0.57 | 1025.57 ± 0.59 | 1022.39 ± 0.61 | 1019.53 ± 0.63 | 1016.6 ± 0.65 | 1013.22 ± 0.67
x2 = 0.5523 | – | – | 1024.89 ± 0.56 | – | – | – | – | –
x2 = 0.5588 | 1031.27 ± 0.52 | 1027.98 ± 0.54 | – | 1021.77 ± 0.58 | 1018.61 ± 0.6 | 1015.78 ± 0.62 | 1012.86 ± 0.64 | 1009.51 ± 0.66
x2 = 0.6574 | – | – | 1021.16 ± 0.55 | – | – | – | – | –
x2 = 0.6633 | 1027.52 ± 0.51 | 1024.23 ± 0.53 | – | 1018.03 ± 0.57 | 1014.87 ± 0.59 | 1012.06 ± 0.61 | 1009.17 ± 0.63 | 1005.8 ± 0.66
x2 = 0.7669 | – | – | 1017.41 ± 0.54 | – | – | – | – | –
x2 = 0.7716 | 1023.77 ± 0.5 | 1020.48 ± 0.52 | – | 1014.27 ± 0.56 | 1011.08 ± 0.58 | 1008.27 ± 0.6 | 1005.36 ± 0.63 | 1001.99 ± 0.65
x2 = 0.881 | – | – | 1013.68 ± 0.54 | – | – | – | – | –
x2 = 0.8837 | 1020.05 ± 0.5 | 1016.74 ± 0.52 | – | 1010.51 ± 0.56 | 1007.33 ± 0.58 | 1004.52 ± 0.6 | 1001.61 ± 0.62 | 998.24 ± 0.64

CC(O)CO (stereo not drawn) [1,2-propanediol]
[2]
Conditions | mass density [kg/m3]
293.15 K | 1036.57 ± 0.54
298.15 K | 1032.86 ± 0.56
303.15 K | 1029.15 ± 0.58
308.15 K | 1025.57 ± 0.6
313.15 K | 1021.44 ± 0.62
318.15 K | 1017.59 ± 0.64
323.15 K | 1013.74 ± 0.66
328.15 K | 1009.71 ± 0.68

OCCCO [propan-1,3-diol]
[2]
Conditions | mass density [kg/m3]
293.15 K | 1053.66 ± 0.59
298.15 K | 1050.29 ± 0.61
303.15 K | 1047.09 ± 0.63
308.15 K | 1043.92 ± 0.65
313.15 K | 1040.61 ± 0.67
318.15 K | 1037.6 ± 0.69
323.15 K | 1034.51 ± 0.71
328.15 K | 1031 ± 0.73

OCCCCO [1,4-butanediol] + OCCCO
[1], x1 = 1
Conditions | mass density [kg/m3]
293.15 K | 1016.37 ± 0.49
298.15 K | 1013.04 ± 0.51
303.15 K | 1009.96 ± 0.53
308.15 K | 1006.75 ± 0.55
313.15 K | 1003.55 ± 0.57
318.15 K | 1000.72 ± 0.59
323.15 K | 997.8 ± 0.61
328.15 K | 994.41 ± 0.64

OCCCCO [1,4-butanediol]
[2]
Conditions | mass density [kg/m3]
293.15 K | 1016.37 ± 0.49
298.15 K | 1013.04 ± 0.51
303.15 K | 1009.96 ± 0.53
308.15 K | 1006.75 ± 0.55
313.15 K | 1003.55 ± 0.57
318.15 K | 1000.72 ± 0.59
323.15 K | 997.8 ± 0.61
328.15 K | 994.41 ± 0.64

CC(O)CO (stereo not drawn) [1,2-propanediol] + OCCCCO
[1], x2 = 0
Conditions | mass density [kg/m3]
293.15 K | 1036.57 ± 0.54
298.15 K | 1032.86 ± 0.56
303.15 K | 1029.15 ± 0.58
308.15 K | 1025.57 ± 0.6
313.15 K | 1021.44 ± 0.62
318.15 K | 1017.59 ± 0.64
323.15 K | 1013.74 ± 0.66
328.15 K | 1009.71 ± 0.68

OCCCCO [1,4-butanediol] + OCCO
mass density [kg/m3], [1]
Conditions | x1 = 0.0711 | x1 = 0.1469 | x1 = 0.2279 | x1 = 0.3147 | x1 = 0.4078 | x1 = 0.5081 | x1 = 0.6164 | x1 = 0.7337 | x1 = 0.8611 | x1 = 1
293.15 K | 1102.71 ± 0.6 | 1092.13 ± 0.58 | 1081.71 ± 0.57 | 1071.48 ± 0.56 | 1061.52 ± 0.54 | 1051.91 ± 0.53 | 1042.67 ± 0.52 | 1033.74 ± 0.51 | 1024.96 ± 0.5 | 1016.37 ± 0.49
298.15 K | 1099.09 ± 0.61 | 1088.58 ± 0.6 | 1078.21 ± 0.59 | 1068.02 ± 0.57 | 1058.12 ± 0.56 | 1048.56 ± 0.55 | 1039.34 ± 0.54 | 1030.4 ± 0.53 | 1021.64 ± 0.52 | 1013.04 ± 0.51
303.15 K | 1096.06 ± 0.63 | 1085.57 ± 0.62 | 1075.22 ± 0.61 | 1065.04 ± 0.59 | 1055.16 ± 0.58 | 1045.58 ± 0.57 | 1036.35 ± 0.56 | 1027.39 ± 0.55 | 1018.61 ± 0.54 | 1009.96 ± 0.53
308.15 K | 1092.51 ± 0.65 | 1082.1 ± 0.64 | 1071.84 ± 0.63 | 1061.7 ± 0.61 | 1051.85 ± 0.6 | 1042.33 ± 0.59 | 1033.12 ± 0.58 | 1024.17 ± 0.57 | 1015.41 ± 0.56 | 1006.75 ± 0.55
313.15 K | 1089.15 ± 0.67 | 1078.8 ± 0.66 | 1068.56 ± 0.65 | 1058.5 ± 0.64 | 1048.65 ± 0.62 | 1039.15 ± 0.61 | 1029.95 ± 0.6 | 1020.99 ± 0.59 | 1012.22 ± 0.58 | 1003.55 ± 0.57
318.15 K | 1085.69 ± 0.7 | 1075.44 ± 0.68 | 1065.32 ± 0.67 | 1055.33 ± 0.66 | 1045.62 ± 0.64 | 1036.15 ± 0.63 | 1027.01 ± 0.62 | 1018.1 ± 0.61 | 1009.36 ± 0.6 | 1000.72 ± 0.59
323.15 K | 1082.18 ± 0.72 | 1072.03 ± 0.7 | 1061.97 ± 0.69 | 1052.09 ± 0.68 | 1042.43 ± 0.67 | 1033.05 ± 0.65 | 1023.96 ± 0.64 | 1015.11 ± 0.63 | 1006.4 ± 0.62 | 997.8 ± 0.61
328.15 K | 1078.33 ± 0.74 | 1068.25 ± 0.72 | 1058.28 ± 0.71 | 1048.46 ± 0.7 | 1038.86 ± 0.69 | 1029.53 ± 0.67 | 1020.51 ± 0.66 | 1011.66 ± 0.65 | 1002.99 ± 0.64 | 994.41 ± 0.64

OCCO [1,2-ethanediol]
[2]
Conditions | mass density [kg/m3]
293.15 K | 1113.55 ± 0.61
303.15 K | 1106.82 ± 0.65
313.15 K | 1099.8 ± 0.69
323.15 K | 1092.59 ± 0.73

OCCCCO [1,4-butanediol] + CC(O)CO
mass density [kg/m3], [1]
Conditions | x1 = 0.0858 | x1 = 0.1743 | x1 = 0.2657 | x1 = 0.3602 | x1 = 0.4578 | x1 = 0.5588 | x1 = 0.6633 | x1 = 0.7716 | x1 = 0.8837 | x1 = 1
293.15 K | 1034.9 ± 0.53 | 1033.19 ± 0.52 | 1031.46 ± 0.52 | 1029.77 ± 0.51 | 1027.85 ± 0.51 | 1025.52 ± 0.51 | 1023.19 ± 0.5 | 1020.85 ± 0.5 | 1018.55 ± 0.49 | 1016.37 ± 0.49
298.15 K | 1031.31 ± 0.55 | 1029.67 ± 0.54 | 1028 ± 0.54 | 1026.34 ± 0.53 | 1024.48 ± 0.53 | 1022.17 ± 0.53 | 1019.88 ± 0.52 | 1017.57 ± 0.52 | 1015.25 ± 0.51 | 1013.04 ± 0.51
303.15 K | 1027.73 ± 0.57 | 1026.21 ± 0.56 | 1024.62 ± 0.56 | 1023.01 ± 0.55 | 1021.19 ± 0.55 | 1018.94 ± 0.55 | 1016.79 ± 0.54 | 1014.47 ± 0.54 | 1012.17 ± 0.53 | 1009.96 ± 0.53
308.15 K | 1024.25 ± 0.59 | 1022.83 ± 0.59 | 1021.31 ± 0.58 | 1019.74 ± 0.58 | 1018 ± 0.57 | 1015.76 ± 0.57 | 1013.64 ± 0.56 | 1011.33 ± 0.56 | 1009.03 ± 0.55 | 1006.75 ± 0.55
313.15 K | 1020.28 ± 0.61 | 1019 ± 0.61 | 1017.64 ± 0.6 | 1016.12 ± 0.6 | 1014.43 ± 0.59 | 1012.35 ± 0.59 | 1010.33 ± 0.58 | 1008.06 ± 0.58 | 1005.78 ± 0.57 | 1003.55 ± 0.57
318.15 K | 1016.58 ± 0.63 | 1015.49 ± 0.63 | 1014.21 ± 0.62 | 1012.83 ± 0.62 | 1011.22 ± 0.61 | 1009.28 ± 0.61 | 1007.33 ± 0.6 | 1005.16 ± 0.6 | 1002.94 ± 0.59 | 1000.72 ± 0.59
323.15 K | 1012.91 ± 0.65 | 1011.97 ± 0.65 | 1010.78 ± 0.64 | 1009.47 ± 0.64 | 1007.97 ± 0.63 | 1006.13 ± 0.63 | 1004.3 ± 0.62 | 1002.18 ± 0.62 | 1000.03 ± 0.62 | 997.8 ± 0.61
328.15 K | 1009 ± 0.67 | 1008.2 ± 0.67 | 1007.11 ± 0.66 | 1005.84 ± 0.66 | 1004.39 ± 0.66 | 1002.63 ± 0.65 | 1000.83 ± 0.65 | 998.81 ± 0.64 | 996.69 ± 0.64 | 994.41 ± 0.64
